Reference: article PMC12190736, “Development and In Vitro Characterization of [^3H]GMC-058 as Radioligand for Imaging Parkinsonian-Related Proteinopathies” (Cells, 2025)

System: fresh-frozen human brain sections
Assay: Autoradiography on fresh-frozen brain tissue sections
Assay type: binding
Conditions: for NSB: 5 µM GMC044; for Specific binding relative to displaceable binding in controls: on average
Procedure: Selections of frozen human sections (described in Table 2 and Table 3) were used for binding autoradiography. Sections were first pre-incubated for 20 min in binding buffer [50 mM Tris-HCl (pH 7.4), 120 mM NaCl, 5 mM KCl, 2 mM CaCl2, 1 mM MgCl2, and 0.1% BSA] and then incubated with [^3H]GMC-058 (specific activity 22 Ci/mmol); [^3H]GMC-073 (specific activity 23.4 Ci/mmol); or […] in binding buffer for 180 min at RT. In the pilot autoradiography experiment (Figure A1). [^3H]GMC-058 was tested at 25 and 50 nM, while [^3H]GMC-073 and [^3H]GMC-098 were each tested at 10 and 20 nM. For all other autoradiography in fresh-frozen tissue sections, 25 nM [^3H]GMC-058 was used. To determine NSB, adjacent brain sections were incubated with [^3H]-tracer mixed with 5 μM of unlabeled GMC-044. The binding reaction was stopped with two 10 min washes in washing buffer [50 mM Tris-HCl (pH 7.4) at 4 °C] and a brief dip in cold distilled water. Slides were allowed to air-dry before being placed under storage phosphor screens (Fujifilm Plate BAS-TR2025, Fujifilm, Tokyo, Japan) in imaging cassettes for 90 h together with ART0123C and ART0123B tritium standards on glass slides (American Radiolabeled Chemicals Inc., St. Louis, MO, USA). Storage phosphor screens were scanned using an Amersham Typhoon FLA-9500 phosphor imaging scanner (Cytiva, Marlborough, MA, USA), and the resulting images were analyzed using Multi Gauge 3.2 phosphor imager software (Fujifilm, Tokyo, Japan) for ROI delimitation, density calibration, and quantification. Quantitative binding data from duplicates of the total, and NSB were plotted and analyzed using graphPad Prism v10 (GraphPad Software, Boston, MA, USA). Specific binding was determined by subtracting the non-specific signal from the total signal. The toluidine blue staining of adjacent sections was used to obtain anatomical references for white- and gray-matter ROI selection. Care was taken not to include artifact signals in the ROIs analyzed. These artifacts were identified as randomly placed punctate signals appearing in both total and NSB images, and they often coincided with small folds or tears in the tissue sections.

[1] = 25 nM radioligand, gray matter of cingulate cortex, control C03
[2] = 25 nM, PD1, cingulate gyrus, GM
[3] = 25 nM, PD1, cingulate gyrus, WM
[4] = 25 nM, PD2, cingulate gyrus, GM
[5] = 25 nM, PD2, cingulate gyrus, WM
[6] = 25 nM, PD3, cingulate gyrus, GM
[7] = 25 nM, PD3, cingulate gyrus, WM
[8] = 25 nM, non-dementia control C01, cingulate gyrus, GM
[9] = 25 nM, non-dementia control C01, cingulate gyrus, WM
[10] = 25 nM, non-dementia control C02, cingulate gyrus, GM
[11] = 25 nM, non-dementia control C02, cingulate gyrus, WM
[12] = 25 nM, non-dementia control C03, cingulate gyrus, GM
[13] = 25 nM, non-dementia control C03, cingulate gyrus, WM
[14] = 50 nM radioligand, gray matter of cingulate cortex, control C03

Question: For [3H]c1cc(N2CCN(c3ccc(NC(=O)C(C)(C)C)cc3)CC2)ccc1OC [[^3H]GMC-058, N-(4-(4-(4-methoxy-[3-3H]phenyl)piperazin-1-yl)phenyl)pivalamide], which NSB [1] is on record?
Answer: The NSB was 37.6 ± 3.8 fmol/mg tissue equivalent.

Question: What about the “Total Minus NSB” value [1] of the same molecule?
Answer: The value was 20 fmol/mg.

Question: What about the Total binding [1] of the same molecule?
Answer: Its Total binding is 57.6 ± 1.8 fmol/mg tissue equivalent.

Question: And the “Specific Binding” value (25 nM, CBD1 block 1, SFG, GM)?
Answer: The value was 50 fmol/mg tissue equivalent.

Question: What about the “Specific Binding” value (25 nM, CBD1 block 1, SFG, WM) of the same molecule?
Answer: Its value is 29 fmol/mg tissue equivalent.

Question: What about the “Specific Binding” value (25 nM, CBD1 block 2, SFG, GM) of the same molecule?
Answer: Its value is 32 fmol/mg tissue equivalent.

Question: What about the “Specific Binding” value (25 nM, CBD1 block 2, SFG, WM) of the same molecule?
Answer: Its value is 130 fmol/mg tissue equivalent.

Question: What about the “Specific binding relative to displaceable binding in controls” value (25 nM, CBD, gray matter of superior frontal gyrus) of the same molecule?
Answer: The value was “three-fold”.

Question: What about the “NSB (5 µM GMC044)” value (25 nM, MSA1, cerebellum, GM) of the same molecule?
Answer: Its value is 27.4 fmol/mg tissue equivalent.

Question: And the “Total Minus NSB” value (25 nM, MSA1, cerebellum, GM)?
Answer: The value was 19.5 fmol/mg tissue equivalent.

Question: And the Total binding (25 nM, MSA1, cerebellum, GM)?
Answer: Its Total binding is 46.9 fmol/mg tissue equivalent.

Question: What about the “NSB (5 µM GMC044)” value (25 nM, MSA1, cerebellum, WM) of the same molecule?
Answer: Its value is 33.3 fmol/mg tissue equivalent.

Question: What about the “Total Minus NSB” value (25 nM, MSA1, cerebellum, WM) of the same molecule?
Answer: Its value is 16.8 fmol/mg tissue equivalent.

Question: And the Total binding (25 nM, MSA1, cerebellum, WM)?
Answer: Its Total binding is 50.1 fmol/mg tissue equivalent.

Question: And the “NSB (5 µM GMC044)” value (25 nM, MSA2, cerebellum, GM)?
Answer: Its value is 19.9 fmol/mg tissue equivalent.

Question: What about the “Total Minus NSB” value (25 nM, MSA2, cerebellum, GM) of the same molecule?
Answer: The value was 10.3 fmol/mg tissue equivalent.

Question: What about the Total binding (25 nM, MSA2, cerebellum, GM) of the same molecule?
Answer: The Total binding was 30.3 fmol/mg tissue equivalent.

Question: What about the “NSB (5 µM GMC044)” value (25 nM, MSA2, cerebellum, WM) of the same molecule?
Answer: The value was 27.7 fmol/mg tissue equivalent.

Question: And the “Total Minus NSB” value (25 nM, MSA2, cerebellum, WM)?
Answer: Its value is 24.8 fmol/mg tissue equivalent.

Question: What about the Total binding (25 nM, MSA2, cerebellum, WM) of the same molecule?
Answer: The Total binding was 52.5 fmol/mg tissue equivalent.

Question: And the “Specific Binding” value (25 nM, MSA3, cerebellum, GM)?
Answer: The value was 26 fmol/mg tissue equivalent.

Question: What about the “Specific Binding” value (25 nM, MSA3, cerebellum, WM) of the same molecule?
Answer: The value was 21 fmol/mg tissue equivalent.

Question: And the “Specific Binding” value (25 nM, MSA4, cerebellum, GM)?
Answer: Its value is 23 fmol/mg tissue equivalent.

Question: What about the “Specific Binding” value (25 nM, MSA4, cerebellum, WM) of the same molecule?
Answer: The value was 49 fmol/mg tissue equivalent.

Question: What about the “Specific Binding” value (25 nM, NDE C03, cingulate cortex, GM) of the same molecule?
Answer: The value was 15 fmol/mg tissue equivalent.

Question: And the “Specific Binding” value (25 nM, NDE C03, cingulate cortex, WM)?
Answer: The value was −2 fmol/mg tissue equivalent.

Question: And the “Specific Binding” value (25 nM, NDE C04, caudate, GM)?
Answer: Its value is 8 fmol/mg tissue equivalent.

Question: And the “Specific Binding” value (25 nM, NDE C04, caudate, WM)?
Answer: The value was −1 fmol/mg tissue equivalent.

Question: And the “Specific Binding” value (25 nM, NDE C04, globus pallidus, GM)?
Answer: The value was 10 fmol/mg tissue equivalent.

Question: What about the “Specific Binding” value (25 nM, NDE C04, globus pallidus, WM) of the same molecule?
Answer: The value was 0 fmol/mg tissue equivalent.

Question: And the “Specific Binding” value (25 nM, NDE Co4, putamen, GM)?
Answer: Its value is 12 fmol/mg tissue equivalent.

Question: What about the “Specific Binding” value (25 nM, NDE Co4, putamen, WM) of the same molecule?
Answer: Its value is 4 fmol/mg tissue equivalent.

Question: And the “NSB (5 µM GMC044)” value [2]?
Answer: Its value is 42.3 fmol/mg tissue equivalent.

Question: And the “Total Minus NSB” value [2]?
Answer: Its value is 13.3 fmol/mg tissue equivalent.

Question: And the Total binding [2]?
Answer: Its Total binding is 55.6 fmol/mg tissue equivalent.

Question: And the “NSB (5 µM GMC044)” value [3]?
Answer: The value was 50.6 fmol/mg tissue equivalent.

Question: What about the “Total Minus NSB” value [3] of the same molecule?
Answer: The value was 1.9 fmol/mg tissue equivalent.

Question: What about the Total binding [3] of the same molecule?
Answer: Its Total binding is 52.5 fmol/mg tissue equivalent.

Question: And the “NSB (5 µM GMC044)” value [4]?
Answer: Its value is 17.1 fmol/mg tissue equivalent.

Question: What about the “Total Minus NSB” value [4] of the same molecule?
Answer: The value was −0.9 fmol/mg tissue equivalent.

Question: What about the Total binding [4] of the same molecule?
Answer: The Total binding was 16.2 fmol/mg tissue equivalent.

Question: What about the “NSB (5 µM GMC044)” value [5] of the same molecule?
Answer: The value was 53.7 fmol/mg tissue equivalent.

Question: And the “Total Minus NSB” value [5]?
Answer: Its value is 1.6 fmol/mg tissue equivalent.

Question: What about the Total binding [5] of the same molecule?
Answer: Its Total binding is 55.4 fmol/mg tissue equivalent.

Question: What about the “NSB (5 µM GMC044)” value [6] of the same molecule?
Answer: Its value is 42.0 fmol/mg tissue equivalent.

Question: What about the “Total Minus NSB” value [6] of the same molecule?
Answer: The value was 17.2 fmol/mg tissue equivalent.

Question: And the Total binding [6]?
Answer: Its Total binding is 59.3 fmol/mg tissue equivalent.

Question: What about the “NSB (5 µM GMC044)” value [7] of the same molecule?
Answer: Its value is 47.1 fmol/mg tissue equivalent.

Question: What about the “Total Minus NSB” value [7] of the same molecule?
Answer: Its value is 8.3 fmol/mg tissue equivalent.

Question: What about the Total binding [7] of the same molecule?
Answer: The Total binding was 55.4 fmol/mg tissue equivalent.

Question: And the “Specific Binding” value (25 nM, PSP1, GP, GM)?
Answer: Its value is 102 fmol/mg tissue equivalent.

Question: And the “Specific Binding” value (25 nM, PSP1, GP, WM)?
Answer: The value was 32 fmol/mg tissue equivalent.

Question: What about the “Specific Binding” value (25 nM, PSP2, GP, GM) of the same molecule?
Answer: Its value is 118 fmol/mg tissue equivalent.

Question: And the “Specific Binding” value (25 nM, PSP2, GP, WM)?
Answer: The value was −1 fmol/mg tissue equivalent.

Question: And the “Specific binding relative to displaceable binding in controls” value (25 nM, PSP, gray matter of globus pallidus)?
Answer: The value was “ten-fold”.

Question: And the “Specific binding versus controls” value (25 nM, cingulate cortex of controls and PD patients, cerebellum of MSA patients)?
Answer: The value was “did not show clear evidence of specific binding higher than the displaceable (off-target) binding in controls”.

Question: What about the “NSB (5 µM GMC044)” value [8] of the same molecule?
Answer: The value was 60.3 fmol/mg tissue equivalent.

Question: What about the “Total Minus NSB” value [8] of the same molecule?
Answer: Its value is −3.5 fmol/mg tissue equivalent.

Question: And the Total binding [8]?
Answer: The Total binding was 56.8 fmol/mg tissue equivalent.

Question: What about the “NSB (5 µM GMC044)” value [9] of the same molecule?
Answer: Its value is 59.8 fmol/mg tissue equivalent.

Question: What about the “Total Minus NSB” value [9] of the same molecule?
Answer: Its value is −2.9 fmol/mg tissue equivalent.

Question: What about the Total binding [9] of the same molecule?
Answer: Its Total binding is 56.9 fmol/mg tissue equivalent.

Question: What about the “NSB (5 µM GMC044)” value [10] of the same molecule?
Answer: The value was 24.6 fmol/mg tissue equivalent.

Question: What about the “Total Minus NSB” value [10] of the same molecule?
Answer: The value was 19.8 fmol/mg tissue equivalent.

Question: What about the Total binding [10] of the same molecule?
Answer: Its Total binding is 44.3 fmol/mg tissue equivalent.

Question: And the “NSB (5 µM GMC044)” value [11]?
Answer: The value was 31.8 fmol/mg tissue equivalent.

Question: What about the “Total Minus NSB” value [11] of the same molecule?
Answer: Its value is 13.6 fmol/mg tissue equivalent.

Question: And the Total binding [11]?
Answer: Its Total binding is 45.3 fmol/mg tissue equivalent.

Question: What about the “NSB (5 µM GMC044)” value [12] of the same molecule?
Answer: The value was 28.6 fmol/mg tissue equivalent.

Question: What about the “Total Minus NSB” value [12] of the same molecule?
Answer: Its value is 16.7 fmol/mg tissue equivalent.

Question: What about the Total binding [12] of the same molecule?
Answer: Its Total binding is 45.3 fmol/mg tissue equivalent.

Question: And the “NSB (5 µM GMC044)” value [13]?
Answer: The value was 39.0 fmol/mg tissue equivalent.

Question: What about the “Total Minus NSB” value [13] of the same molecule?
Answer: Its value is 9.7 fmol/mg tissue equivalent.

Question: And the Total binding [13]?
Answer: Its Total binding is 48.7 fmol/mg tissue equivalent.

Question: And the “Specific binding relative to average displaceable binding in gray matter of controls” value (25 nM, two MSA cases, cerebellar gray matter)?
Answer: The value was “two-fold higher”.

Question: What about the Average specific binding (25 nM, white matter of MSA and CBD cases) of the same molecule?
Answer: The Average specific binding was 35 to 80 fmol/mg.

Question: What about the Specific Binding (25 nM, white matter of control cases) of the same molecule?
Answer: The Specific Binding was “No specific binding”.

Question: And the NSB [14]?
Answer: The NSB was 74.6 ± 4.1 fmol/mg tissue equivalent.

Question: And the “Total Minus NSB” value [14]?
Answer: Its value is 40 fmol/mg.

Question: And the Total binding [14]?
Answer: The Total binding was 114.1 ± 9.3 fmol/mg tissue equivalent.

Question: What about the “Binding displaced by GMC-044” value (5 µM GMC-044, control cingulate cortex tissue) of the same molecule?
Answer: Its value is ~ 65%.

Question: And the “Binding in control tissue” value (cingulate cortex of healthy controls)?
Answer: Its value is “negligible binding”.
